Source: patent publication US6706663B2, “Herbicidal 3-heterocyclic substituted benzisothiazole and benzisoxazole compounds” (Wyeth, priority 2000, dated 2004)

Experiments:
[1] = test system: ABUTH (Abutilon theophrasti); experiment: Postemergence herbicidal evaluation; format: in vivo, Medic.; details: postemergence
In short: (§1)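 Seedlings grown about two weeks in flats, sprayed, then kept under standard greenhouse care. Rated visually 4–5 weeks after treatment on a 0–9 scale (stand, vigour, malformation, size, chlorosis, overall appearance) relative to untreated control; repeat tests averaged.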

[2] = test system: AMBEL (Ambrosia artemisifolia); experiment: Postemergence herbicidal evaluation; format: in vivo, L.; details: postemergence
In short: as §1

[3] = test system: CASOB (Cassia obtusifolia); experiment: Postemergence herbicidal evaluation; format: in vivo, L.; details: postemergence
In short: as §1

[4] = test system: CHEAL (Chenopodium album); experiment: Postemergence herbicidal evaluation; format: in vivo, L.; details: postemergence
In short: as §1

[5] = test system: IPOHE (Ipomoea hederacea); experiment: Postemergence herbicidal evaluation; format: in vivo, (L.) Jacq.; details: postemergence
In short: as §1

[6] = test system: ECHCG (Echinochloa crus-galli); experiment: Postemergence herbicidal evaluation; format: in vivo, (L.) Beau; details: postemergence
In short: as §1

ORYSAT (Rice, Tebonnet) [7] = experiment: Postemergence herbicidal evaluation; format: in vivo, Oryza sativa, (L.) Tebonnet; details: postemergence
In short: as §1

[8] = test system: TRZAWR (Wheat, Winter, cv Riband); experiment: Postemergence herbicidal evaluation; format: in vivo, Triticum aestivum; details: postemergence
In short: as §1

ZEAMX (Corn, Field) = experiment: Postemergence herbicidal evaluation; format: in vivo, Zea mays, L.; details: postemergence
In short: as §1

[9] = test system: ABUTH (Abutilon theophrasti); experiment: Preemergence herbicidal evaluation; format: in vivo, Medic.; details: rated 4-5 weeks after treatment
[10] = test system: AMBEL (Ambrosia artemisifolia); experiment: Preemergence herbicidal evaluation; format: in vivo, L.; details: rated 4-5 weeks after treatment
In short: (§2)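 Applied before emergence as an aqueous acetone spray over seeded soil. Read-out: 0–9 visual rating covering plant stand, vigor, size, chlorosis, malformation and overall appearance compared with control, taken 4–5 weeks after spraying.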

[11] = test system: CASOB (Cassia obtusifolia); experiment: Preemergence herbicidal evaluation; format: in vivo, L.; details: rated 4-5 weeks after treatment
In short: as §2

[12] = test system: CHEAL (Chenopodium album); experiment: Preemergence herbicidal evaluation; format: in vivo, L.; details: rated 4-5 weeks after treatment
In short: as §2

ORYSAT (Rice, Tebonnet) [13] = experiment: Preemergence herbicidal evaluation; format: in vivo, Oryza sativa, (L.) Tebonnet; details: rated 4-5 weeks after treatment
[14] = test system: TRZAWR (Wheat, Winter, cv Riband); experiment: Preemergence herbicidal evaluation; format: in vivo, Triticum aestivum; details: rated 4-5 weeks after treatment
In short: as §2

[15] = test system: ECHORC (Echinochloa oryzoides); experiment: Flooded paddy, preemergence weed control; format: in vivo, Echinochloa oryzoides (Ard.) Fritsch.; details: rated 3-4 weeks after treatment, 0-9 rating scale
In short: (§3)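 Greenhouse paddy test, preemergence. Seeds planted in the top 0.5 cm of silt loam soil, which remained flooded at 1.5–3 cm depth. Scored 0-9 by visual comparison with control.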

[16] = test system: SAGPY (Sagittaria pygmaea); experiment: Flooded paddy, preemergence weed control; format: in vivo, L.; details: rated 3-4 weeks after treatment, 0-9 rating scale
In short: as §3

ORYSAT (Rice, Tebonnet) [17] = experiment: Flooded paddy, post-transplant rice tolerance; format: in vivo, Oryza sativa, (L.) Tebonnet; details: flooded paddy, post-transplant rice, rated 3-4 weeks after treatment, 0-9 rating scale
In short: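 Seedlings aged ten days are transplanted in pairs into undrained pots of silt loam, which are then flooded to a depth of 1.5 to 3 cm. After herbicide application the pots are kept in a greenhouse with the flood maintained. Plants are rated 0-9 by visual comparison with controls.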

Cn1c(C(F)(F)F)cc(=O)n(-c2ccc3snc(C4=NCCO4)c3c2)c1=O [Compound 75, 1-methyl-3-[3(2-oxazolin-2-yl)-1,2-benzisothiazol-5-yl]-6-(trifluoromethyl)uracil]
4.5: ZEAMX herbicidal rating (ZEAMX (Corn, Field); rate 0.0320 kg/ha) | herbicidal rating, SAGPY ([16]; rate 0.0320 kg/ha) | herbicidal rating, ORYSAT (rice tolerance) (ORYSAT (Rice, Tebonnet) [17]; rate 0.0320 kg/ha)
1.5: herbicidal rating, ECHORC ([15]; rate 0.0080 kg/ha)
0.0: Preemergence herbicidal rating CASOB ([11]; Rate 0.0620 kg/ha) | Preemergence herbicidal rating ORYSAT (ORYSAT (Rice, Tebonnet) [13]; Rate 0.0620 kg/ha) | Preemergence herbicidal rating TRZAWR ([14]; Rate 0.0620 kg/ha) | herbicidal rating, SAGPY ([16]; rate 0.0080 kg/ha)
8.5: herbicidal rating, ECHORC ([15]; rate 0.1250 kg/ha)
3.0: ECHCG herbicidal rating ([6]; rate 0.0320 kg/ha) | ECHCG herbicidal rating ([6]; rate 0.0620 kg/ha) | Preemergence herbicidal rating AMBEL ([10]; Rate 0.1250 kg/ha)
4.0: herbicidal rating, ECHORC ([15]; rate 0.0320 kg/ha)
7.0: CHEAL herbicidal rating ([4]; rate 0.0320 kg/ha) | CHEAL herbicidal rating ([4]; rate 0.0620 kg/ha) | Preemergence herbicidal rating AMBEL ([10]; Rate 0.2500 kg/ha) | Preemergence herbicidal rating ORYSAT (ORYSAT (Rice, Tebonnet) [13]; Rate 0.2500 kg/ha) | Preemergence herbicidal rating TRZAWR ([14]; Rate 0.2500 kg/ha)
1.0: Preemergence herbicidal rating ABUTH ([9]; Rate 0.0620 kg/ha) | Preemergence herbicidal rating ABUTH ([9]; Rate 0.1250 kg/ha) | Preemergence herbicidal rating AMBEL ([10]; Rate 0.0620 kg/ha) | Preemergence herbicidal rating CASOB ([11]; Rate 0.1250 kg/ha) | Preemergence herbicidal rating CASOB ([11]; Rate 0.2500 kg/ha)
3.5: ORYSAT herbicidal rating (ORYSAT (Rice, Tebonnet) [7]; rate 0.0620 kg/ha) | TRZAWR herbicidal rating ([8]; rate 0.0620 kg/ha)
5.0: ZEAMX herbicidal rating (ZEAMX (Corn, Field); rate 0.0620 kg/ha)
6.0: Preemergence herbicidal rating CHEAL ([12]; Rate 0.1250 kg/ha) | herbicidal rating, ORYSAT (rice tolerance) (ORYSAT (Rice, Tebonnet) [17]; rate 0.1250 kg/ha)
2.5: ORYSAT herbicidal rating (ORYSAT (Rice, Tebonnet) [7]; rate 0.0320 kg/ha) | herbicidal rating, ORYSAT (rice tolerance) (ORYSAT (Rice, Tebonnet) [17]; rate 0.0080 kg/ha)
2.0: CASOB herbicidal rating ([3]; rate 0.0320 kg/ha) | CASOB herbicidal rating ([3]; rate 0.0620 kg/ha) | TRZAWR herbicidal rating ([8]; rate 0.0320 kg/ha) | Preemergence herbicidal rating ORYSAT (ORYSAT (Rice, Tebonnet) [13]; Rate 0.1250 kg/ha) | Preemergence herbicidal rating TRZAWR ([14]; Rate 0.1250 kg/ha)
9.0: ABUTH herbicidal rating ([1]; rate 0.0320 kg/ha) | ABUTH herbicidal rating ([1]; rate 0.0620 kg/ha) | AMBEL herbicidal rating ([2]; rate 0.0320 kg/ha) | AMBEL herbicidal rating ([2]; rate 0.0620 kg/ha) | IPOHE herbicidal rating ([5]; rate 0.0320 kg/ha) | IPOHE herbicidal rating ([5]; rate 0.0620 kg/ha) | Preemergence herbicidal rating ABUTH ([9]; Rate 0.2500 kg/ha) | Preemergence herbicidal rating CHEAL ([12]; Rate 0.0620 kg/ha) | Preemergence herbicidal rating CHEAL ([12]; Rate 0.2500 kg/ha) | herbicidal rating, SAGPY ([16]; rate 0.1250 kg/ha)

C=CC1COC(c2nsc3ccc(-n4c(=O)cc(C(F)(F)F)n(C)c4=O)cc23)O1 (stereo not drawn) [Compound 76, 1-methyl-6-(trifluoromethyl)-3-[3-(4-vinyl-1,3-dioxolan-2-yl)-1,2-benzisothiazol-5-yl]uracil]
3.0: ECHCG herbicidal rating ([6]; rate 0.0620 kg/ha) | TRZAWR herbicidal rating ([8]; rate 0.0320 kg/ha) | herbicidal rating, ORYSAT (rice tolerance) (ORYSAT (Rice, Tebonnet) [17]; rate 0.0320 kg/ha)
7.0: IPOHE herbicidal rating ([5]; rate 0.0320 kg/ha) | Preemergence herbicidal rating ORYSAT (ORYSAT (Rice, Tebonnet) [13]; Rate 0.0620 kg/ha) | Preemergence herbicidal rating TRZAWR ([14]; Rate 0.0620 kg/ha) | herbicidal rating, ECHORC ([15]; rate 0.0320 kg/ha)
8.0: Preemergence herbicidal rating TRZAWR ([14]; Rate 0.1250 kg/ha) | Preemergence herbicidal rating TRZAWR ([14]; Rate 0.2500 kg/ha)
3.5: ORYSAT herbicidal rating (ORYSAT (Rice, Tebonnet) [7]; rate 0.0320 kg/ha) | TRZAWR herbicidal rating ([8]; rate 0.0620 kg/ha) | ZEAMX herbicidal rating (ZEAMX (Corn, Field); rate 0.0320 kg/ha)
0.0: ECHCG herbicidal rating ([6]; rate 0.0320 kg/ha) | herbicidal rating, SAGPY ([16]; rate 0.0080 kg/ha) | herbicidal rating, SAGPY ([16]; rate 0.0320 kg/ha)
9.0: ABUTH herbicidal rating ([1]; rate 0.0320 kg/ha) | ABUTH herbicidal rating ([1]; rate 0.0620 kg/ha) | AMBEL herbicidal rating ([2]; rate 0.0320 kg/ha) | AMBEL herbicidal rating ([2]; rate 0.0620 kg/ha) | CHEAL herbicidal rating ([4]; rate 0.0320 kg/ha) | CHEAL herbicidal rating ([4]; rate 0.0620 kg/ha) | IPOHE herbicidal rating ([5]; rate 0.0620 kg/ha) | Preemergence herbicidal rating ABUTH ([9]; Rate 0.0620 kg/ha) | Preemergence herbicidal rating ABUTH ([9]; Rate 0.1250 kg/ha) | Preemergence herbicidal rating ABUTH ([9]; Rate 0.2500 kg/ha) | Preemergence herbicidal rating AMBEL ([10]; Rate 0.0620 kg/ha) | Preemergence herbicidal rating AMBEL ([10]; Rate 0.1250 kg/ha) | Preemergence herbicidal rating AMBEL ([10]; Rate 0.2500 kg/ha) | Preemergence herbicidal rating CASOB ([11]; Rate 0.2500 kg/ha) | Preemergence herbicidal rating CHEAL ([12]; Rate 0.0620 kg/ha) | Preemergence herbicidal rating CHEAL ([12]; Rate 0.1250 kg/ha) | Preemergence herbicidal rating CHEAL ([12]; Rate 0.2500 kg/ha) | Preemergence herbicidal rating ORYSAT (ORYSAT (Rice, Tebonnet) [13]; Rate 0.2500 kg/ha) | herbicidal rating, ECHORC ([15]; rate 0.1250 kg/ha) | herbicidal rating, SAGPY ([16]; rate 0.1250 kg/ha) | herbicidal rating, ORYSAT (rice tolerance) (ORYSAT (Rice, Tebonnet) [17]; rate 0.1250 kg/ha)
2.0: herbicidal rating, ORYSAT (rice tolerance) (ORYSAT (Rice, Tebonnet) [17]; rate 0.0080 kg/ha)
4.5: ZEAMX herbicidal rating (ZEAMX (Corn, Field); rate 0.0620 kg/ha)
5.0: CASOB herbicidal rating ([3]; rate 0.0620 kg/ha) | Preemergence herbicidal rating CASOB ([11]; Rate 0.0620 kg/ha) | herbicidal rating, ECHORC ([15]; rate 0.0080 kg/ha)
4.0: CASOB herbicidal rating ([3]; rate 0.0320 kg/ha) | ORYSAT herbicidal rating (ORYSAT (Rice, Tebonnet) [7]; rate 0.0620 kg/ha)
8.5: Preemergence herbicidal rating CASOB ([11]; Rate 0.1250 kg/ha) | Preemergence herbicidal rating ORYSAT (ORYSAT (Rice, Tebonnet) [13]; Rate 0.1250 kg/ha)
